Test results from US20030114449A1, “SACCHARIN DERIVATIVES AS ORALLY ACTIVE ELASTASE INHIBITORS” (priority 1999, published 2003).

Molecular target: T1, human leukocyte elastase enzyme (Homo sapiens, UniProt P08246)
T1 sequence (P08246 30-267): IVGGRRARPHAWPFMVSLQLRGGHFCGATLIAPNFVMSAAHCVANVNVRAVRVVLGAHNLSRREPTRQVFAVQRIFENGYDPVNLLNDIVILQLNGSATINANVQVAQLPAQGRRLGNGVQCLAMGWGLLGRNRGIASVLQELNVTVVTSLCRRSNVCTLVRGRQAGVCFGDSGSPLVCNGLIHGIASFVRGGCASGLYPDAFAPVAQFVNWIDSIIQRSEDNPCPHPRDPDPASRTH
Experiment: Inhibition of acute lung damaging effect caused by human leukocyte elastase enzyme, determined on mice (BAL haemoglobin)
Type: in vivo, mouse
Conditions: for inhibition %: male NMRI mice, p.o. dose 10 mg/bw kg, 60 minutes before intratracheal human leukocyte elastase, haemorrhagic response (BAL haemoglobin, 540 nm) 3 hours later; for ED50: mouse, po, mice, per os, elastase-induced lung haemorrhage
Experimental: Inhibition of Acut Lung Damaging Effect Caused by Human Leukocyte Elastase Enzyme, Determined on Mice.
Description of the method:
Male NMRI mice approximately 6-8 week old of age, weighing between 22-26 grams were dosed per os with the 0.1% (w/v) solution in carboxymethyl cellulose of the investigated compounds of the general formula (I) or of the known comparatory compound, respectively. 60 minutes later the mice were given intratracheally 12.5 international unit of human leukocyte elastase enzyme dissolved in 25.0 μL sterile physiological sodium chloride solution.
3 hours later the animals were euthanized with an overdose of urethane and into the lung 1 ml of physiological salt solution was introduced, for washing.
The trachea was exposed at wound by opening suture clips and a small incision made for insertion of a polyethylene cannula secured in place with surgical thread. An 18 gauge×1½ inch needle, attached to an 1.00 mL syringe was inserted into the cannula, and 0.5 mL of air was withdrawn from the airways. One milliliter was then instilled into the airways. After it the chest was briefly and gently massaged. The syringe was removed from the cannula and the bronchoalveolar lavage (BAL) fluid allowed to drain into a 10.0 mL graduate to determine the total volume of lavage fluid retrievable from lungs while the animal was in a supine position. The instillation procedure mentioned above was repeated three times. Triton X100 was then added to the collected bronchoalveolar lavage fluid (final concentration, 0.2% v/v) to ensure cell disruption and the haemoglobin content was determined spectrophotometrically at 540 nm.
Effectiveness of the elastase enzyme inhibitory compound was determined on the basis of the haemorrhagic responses, according to the following formula:
% inhibition=[(VE−DE)/(VE−VS)]×100,
VE=mean absorbance of BAL fluids from the group pretreated orally only with vehicle but intratracheally with elastase;
DE=absorbance of each BAL fluid from animals pretreated orally with potential inhibitor compound, intratracheally with elastase;
VS=mean absorbance of BAL fluids from group pretreated orally with vehicle and intratracheally with sterile physiological salt solution.
For comparative compound the structurally most related known compound described in patent application EP-0626378A1 example 9E was used. Its synthesis is described above in the reference example.

Compound	inhibition % [%]	ED50 [mg/kg]
COc1cc(C(C)C)c2c(c1)S(=O)(=O)N(COc1cc(=O)n3cccc(OCCN4CCCC4)c3n1)C2=O [EP-626378, Example 9E, 2-(9-(2-pyrrolidino-ethoxy)-4-oxo-4H-pyrido[1,2-a]pyrimidin-2-yl-oxymethyl)-4-isopropyl-6-methoxy-1,2-benzisothiazol-3(2H)one-1,1-dioxide, reference compound]	15	23
COc1cc(C(C)C)c2c(c1)S(=O)(=O)N(COc1cc(=O)n3cccc(OCCN4CCCCC4)c3n1)C2=O [Example 3, 2(-9-(2-piperidino-ethoxy)-4-oxo-4H-pyrido[1,2-a]pyrimidin-2-yl-oxymethyl)-4-isopropyl-6-methoxy-1,2-benzisothiazol-3(2H)-one-1,1-dioxide]	80	2.6
COc1cc(C(C)C)c2c(c1)S(=O)(=O)N(COc1cc(=O)n3cccc(OCCN4CCCCC4)c3n1)C2=O.O=C(O)c1ccccc1 [Example 7, 2-(9-(2-piperidino-ethoxy)-4-oxo-4H-pyrido[1,2-a]pyrimidin-2-yl-oxymethyl)-4-isopropyl-6-methoxy-1,2-benzisothiazol-3(2H)-one-1,1-dioxide benzoate salt]	56	
COc1cc(C(C)C)c2c(c1)S(=O)(=O)N(COc1cc(=O)n3cccc(OCCN4CCCCC4)c3n1)C2=O.O=C(O)CC(O)(CC(=O)O)C(=O)O [Example 8, 2-(9-(2-piperidino-ethoxy)-4-oxo-4H-pyrido[1,2-a]pyrimidin-2-yl-oxymethyl)-4-isopropyl-6-methoxy-1,2-benzisothiazol-3(2H)-one-1,1-dioxide monocitrate salt]	70	
